Source: patent EP3820512B1, “IMMUNOMODULATING COMPOSITIONS COMPRISING OLIGOSACCHARIDE DERIVATIVES” (priority 2018, dated 2020)

Key:
[1] = system: normal lung epithelial cells (AT-1); format: cell-based, human; conditions: 1 mM and 2 mM, 48h, trypan blue
Protocol: The cells were treated with compounds and incubated for 48h.

[2] = target: T1, TLR2 (Homo sapiens, UniProt O60603); assay: TLR2 activity in PMA-stimulated THP-1 monocyte cells, ELISA of cell lysate; format: cell-based; conditions: THP-1 cells
T1 construct: endogenous in cells; host or cells: THP-1 monocyte cells stimulated with PMA
Protocol: THP-1 monocyte cells (1×10^5) were stimulated with 200nM of PMA for 48h and treated with different concentrations of test compounds. The TLR2 activity was measured after 24 h from the cell lysate using ELISA.

[3] = target: TLR4 (Homo sapiens, UniProt O00206); assay: TLR4 inhibitory and activating activity in THP-1 cells at low and high concentrations; format: cell-based; design: endogenous in cells; host or cells: THP-1 (human monocytic) cells
[4] = system: THP-1 (human monocytic) cells; assay: Cytokine response (IL-1β, TNF-α, IL-10) of THP-1 cells treated with compounds; format: cell-based; conditions: 100-200 µM
Protocol: When THP-1 (human monocytic) cells were treated with 100-200 µM of compounds 8, 14, 17, 23, 29, and 32, they produced an increased IL-1β and TNF-α response, decreased anti-inflammatory cytokine IL-10 (FIG. 4).

[5] = system: HUVECs; assay: Cytotoxicity in HUVECs, MTT cell proliferation kit; format: cell-based, human; conditions: 100 µM, 24h
Protocol: Selected TLR2/4 antagonist compounds 2, 6, 7, 8, 14, 17 and 32 were evaluated for cytotoxicity in HUVECs at 100 µM concentration. The cells were treated with compounds and incubated for 24h. Cell viability was assessed using MTT cell proliferation kit (Promega). All the compounds were not toxic to HUVECs (FIG. 15).

[6] = system: hPBMC; assay: Cytotoxicity in hPBMC, MTT cell proliferation kit; format: cell-based, human; conditions: 0.1, 1.0, 10, 100 and 1000 µM, 24h
Protocol: The cells were treated with compounds and incubated for 24h. Cell viability was assessed using MTT cell proliferation kit (Promega).

[7] = system: VEGF induced tube formation in HUVECs; assay: Anti-angiogenic activity, Tube Formation kit, VEGF induced; format: cell-based, human; conditions: VEGF 100ng/mL
Protocol: Selected TLR2/4 antagonist compounds 2, 6, 7, 8, 14, 17 and 32 were evaluated for anti-angiogenic activity using the Tube Formation kit (Cat#3470-096-K). VEGF (100ng/mL) was used as positive control. These compounds have potential applications in diseases associated with pathological angiogenesis such as solid tumor, […], diabetic retinopathy as well as AMD.

[8] = system: hyperoxia induced BPD in mouse pups; assay: Hyperoxia-exposed BPD mouse model (newborn pups); format: in vivo
From the text: Neonatal mice and humans undergo similar stages of lung development but differ with respect to the duration of each stage and its temporal relationship to gestational age. The lungs of the mouse born at term are in the saccular stage and are surfactant sufficient; this can be considered somewhat akin to a human preterm neonate in the same stage of lung development that has been exposed to a full complement of antenatal steroids (which is known to enhance surfactant production). In terms of mimicking the human condition, the most successful hyperoxia models are those that limit exposure to hyperoxia to the saccular stage of pulmonary development. The mouse BPD model involves exposing newborn mice (postnatal day 1 or PN1) to 100% oxygen till PN4 followed by recovery in room air (RA) for another 10 days.
After the recovery period, their lungs were harvested and processed for quantitative PCR, western blotting, histopathology and ELISA.
After the recovery period, their lungs were harvested and processed for quantitative PCR, western blotting and histopathology and ELISA.
BPD is characterized by large simplified alveoli, inflammation, increased cell death, decreased cell proliferation, dysmorphic capillary configuration, and variable interstitial cellularity and/or fibroproliferation. […] This is determined by measuring the alveolar chord length, septal thickness and radial alveolar count (RAC). In BPD, the alveolar area increases which is characterized by increase in the diameter of the alveolar sacs, the septa become thickened (thus interfering in gaseous exchange) and the RAC, a parameter used to assess the complexity of terminal respiratory unit by pulmonologists, decreases as a result of arrested lung development.

[9] = system: human peripheral blood monocytes; assay: IL-10 production in human peripheral blood monocytes; format: cell-based; conditions: after 48 h
[10] = Concentration 75-100 µM, THP-1 cells

TLR4, sequence (O00206 24-839): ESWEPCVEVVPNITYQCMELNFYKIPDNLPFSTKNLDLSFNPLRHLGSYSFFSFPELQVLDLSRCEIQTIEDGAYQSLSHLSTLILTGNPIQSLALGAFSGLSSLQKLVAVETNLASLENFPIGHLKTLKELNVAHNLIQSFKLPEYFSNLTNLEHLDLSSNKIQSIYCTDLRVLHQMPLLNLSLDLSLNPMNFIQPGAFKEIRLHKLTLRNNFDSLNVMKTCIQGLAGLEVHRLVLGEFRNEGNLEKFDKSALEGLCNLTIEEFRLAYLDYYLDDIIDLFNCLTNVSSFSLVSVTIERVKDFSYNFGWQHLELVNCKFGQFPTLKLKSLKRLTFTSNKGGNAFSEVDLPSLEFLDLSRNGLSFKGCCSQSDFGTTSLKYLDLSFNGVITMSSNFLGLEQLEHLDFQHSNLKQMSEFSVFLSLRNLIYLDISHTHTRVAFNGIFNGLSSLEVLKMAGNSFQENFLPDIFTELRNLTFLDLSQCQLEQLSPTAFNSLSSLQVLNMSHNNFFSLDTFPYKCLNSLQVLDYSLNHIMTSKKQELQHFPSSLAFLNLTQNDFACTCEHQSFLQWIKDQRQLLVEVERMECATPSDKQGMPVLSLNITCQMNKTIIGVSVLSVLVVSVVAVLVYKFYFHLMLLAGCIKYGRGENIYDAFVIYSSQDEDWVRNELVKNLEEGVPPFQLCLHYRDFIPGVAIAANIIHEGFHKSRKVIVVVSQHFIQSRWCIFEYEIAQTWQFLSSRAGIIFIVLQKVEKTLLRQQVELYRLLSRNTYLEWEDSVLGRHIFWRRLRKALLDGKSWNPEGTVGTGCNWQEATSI
TLR4, sequence (Q9Y6Y9 17-160 partner limits assumed): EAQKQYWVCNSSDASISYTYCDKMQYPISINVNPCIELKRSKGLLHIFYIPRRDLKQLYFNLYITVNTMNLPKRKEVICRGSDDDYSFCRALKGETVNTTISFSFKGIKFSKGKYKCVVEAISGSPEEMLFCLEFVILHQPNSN
T1 sequence (O60603 21-784): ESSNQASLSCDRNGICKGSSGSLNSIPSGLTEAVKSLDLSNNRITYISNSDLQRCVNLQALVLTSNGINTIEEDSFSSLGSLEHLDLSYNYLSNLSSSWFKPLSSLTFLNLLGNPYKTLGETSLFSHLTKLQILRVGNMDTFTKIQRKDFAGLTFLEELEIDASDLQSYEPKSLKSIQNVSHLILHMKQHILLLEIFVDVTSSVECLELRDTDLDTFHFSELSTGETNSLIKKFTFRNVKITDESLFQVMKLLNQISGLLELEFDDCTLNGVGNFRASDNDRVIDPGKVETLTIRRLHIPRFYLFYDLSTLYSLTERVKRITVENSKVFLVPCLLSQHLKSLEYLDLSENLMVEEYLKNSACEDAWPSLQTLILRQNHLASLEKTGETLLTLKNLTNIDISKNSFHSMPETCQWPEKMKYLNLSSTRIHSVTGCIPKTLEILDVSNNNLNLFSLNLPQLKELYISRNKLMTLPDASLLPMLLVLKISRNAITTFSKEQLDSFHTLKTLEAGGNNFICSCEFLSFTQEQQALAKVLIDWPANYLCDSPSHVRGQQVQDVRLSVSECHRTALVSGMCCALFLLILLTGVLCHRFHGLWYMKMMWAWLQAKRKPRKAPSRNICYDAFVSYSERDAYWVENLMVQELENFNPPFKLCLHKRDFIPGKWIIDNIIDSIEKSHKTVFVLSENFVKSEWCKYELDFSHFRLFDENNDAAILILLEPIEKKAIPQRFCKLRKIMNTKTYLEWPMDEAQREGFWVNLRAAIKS

| SMILES | cytotoxicity in normal lung epithelial cells (AT-1) [1] | % activation over control TLR2 ([2]; Concentration 1-10 µM) | % activation over control TLR2 ([2]; Concentration 75-100 µM) | % activation over control TLR4 [3, 10] | IL-1β response [4] | TNF-α response [4] | anti-inflammatory cytokine IL-10 [4] | cytotoxicity in HUVECs (cell viability) [5] | cytotoxicity in hPBMC (cell viability) [6] | VEGF induced tube formation [7] | % inhibition over control TLR2 ([2]; Concentration 1-10 µM) | % inhibition over control TLR2 ([2]; Concentration 75-100 µM) | % inhibition over control TLR4 ([3]; Concentration 1-10 µM, THP-1 cells) | % inhibition over control TLR4 [3, 10] | TLR4 modulatory activity ([3]; summary in words) | TLR2/4 antagonist activity ([3]; summary in words, as shown in Table-1 (FIG. 1), TLR2 and TLR4) | TLR4 inhibition in vivo ([8]; neonatal pups with BPD) | lung architecture ([8]; saline (IV) and nanosuspension (IN) formulation) | IL-10 production ([9]; 0.1-1.0 µM) | IL-10 production ([9]; 10-100 µM) |
| --- | --- | --- | --- | --- | --- | --- | --- | --- | --- | --- | --- | --- | --- | --- | --- | --- | --- | --- | --- | --- |
| CC(=O)NC1[C@H](Oc2ccc3c(C)cc(=O)oc3c2)O[C@H](CO)[C@@H](O)[C@@H]1O (single isomer, unassigned) [Compound 29] | not toxic | ++ (++ means that the % of inhibition or activation is in the range of 25-75%) | + (+ means that the % of inhibition or activation is in the range of 15-25%) | + (+ means that the % of inhibition or activation is in the range of 15-25%) | increased | increased | decreased |  |  |  |  |  |  |  |  |  |  |  |  |  |
| CC(=O)NC1[C@H](Oc2ccc(B3OC(C)(C)C(C)(C)O3)cc2)O[C@H](CO)[C@@H](O)[C@@H]1O (single isomer, unassigned) [Compound 32, p-Pinacoloneboronatephenyl 2-acetamido-2-deoxy-β-D-glucopyranoside] |  |  |  |  | increased | increased | decreased | not toxic | not toxic | significantly decreased | +++ (+++ means that the % of inhibition or activation is in the range of 75-95%) | + (+ means that the % of inhibition or activation is in the range of 15-25%) | +++ (+++ means that the % of inhibition or activation is in the range of 75-95%) | +++ (+++ means that the % of inhibition or activation is in the range of 75-95%) | concentration dependent TLR4 modulatory activity | potent TLR2/4 antagonists | inhibit | restored | increase | decrease |
| CC(=O)O[C@H]1C(=O)[C@@]2(C)[C@H]([C@H](OC(=O)c3ccccc3)[C@]3(O)C[C@H](OC(=O)[C@H](O)[C@@H](NC(=O)c4ccccc4)c4ccccc4)C(C)=C1C3(C)C)[C@]1(OC(C)=O)CO[C@@H]1C[C@@H]2O [Taxol, reference compound] | toxic |  |  |  |  |  |  |  |  |  |  |  |  |  |  |  |  |  |  |  |
